The values below come from US10889569B2, “Condensed ring group azacyclobutyl triazole derivative, preparation method therefor and use thereof in medicine” (Jiangsu Hengrui Medicine Co., Ltd., priority 2016, dated 2021).

A short description of data set [1]: Brain permeability of rats (Kp-unbound). The format is in vivo. The settings on record: both sexes, rat, not told, po; SD rats, 10 mg/kg intragastrically, 0.5 h after administration; read-out: Kp-unbound (blood-brain permeability index). The method, then:
The activity of the compounds of the present invention on the brain permeability of rats was determined by the following experimental method:
Four SD rats (half male and half female) were maintained in a 12 hours light/12 hours dark cycle, in a constant temperature of 24±3° C. and a humidity of 50-60%, and free access to food and water. The compounds were administered intragastrically to the rats after fasting overnight. The administration dosage was 10 mg/kg. The administration group was sacrificed after blood collection at 0.5 h to 2 h after administration (blood volume: 0.5 ml). The blood sample was stored in heparinized tubes, and centrifuged for 10 minutes at 3500 rpm to separate the plasma, which was marked as plasma 1 and stored at […]. The animal was decapitated after sacrificing, and the brain tissue was collected. The residual blood in the brain tissue was sucked with a filter paper, which was marked as brain tissue 1, and stored at 0° C. ten minutes later. Another three animals were treated by the same method as that of administration group to obtain blank plasma and brain tissue 2.
The drug compounds were diluted to 50 mM with DMSO to obtain a stock solution I. An appropriate amount of stock solution I was diluted with methanol to obtain a diluted stock solution II (200 μM). 10 μl of stock solution II was moved to a 1.5 ml Eppendorf tube, and then added with 990 μl of blank plasma, and mixed well to obtain 2 μM of plasma sample 2 (concentration of DMSO≤0.2%), which was used for the determination of plasma protein binding rate at this concentration. […]
The equilibrium dialysis tube of RED Device Inserts was inserted into a 96-well plate. […] The chromatographic peak area ratios of the total drug (plasma chamber) and the free drug (buffer chamber) to the internal standard were determined directly by the LC/MS/MS method established above respectively, and the free percent (fu plasma %) was calculated.
Brain tissue protein binding equilibrium dialysis process: the blank brain tissue 2 was formulated into a blank brain homogenate with PBS (pH 7.4) according to a dilution factor of 11, and added with compound to formulate a 2 μM brain homogenate. Other procedures were the same with that of plasma protein binding, the chromatographic peak area ratios of the total drug (brain homo chamber) and the free drug (buffer chamber) to the internal standard were determined by the established LC/MS/MS method respectively, and the free percent (fu brain hom %) was calculated.
1) The drug concentrations in plasma 1 and brain tissue 1 of rats 0.5 h after administration were determined by the established LC/MS/MS method respectively, which were the total concentration (Ctotal, p and Ctotal, b); […]

Data set [2] is described as follows: Pharmacokinetics assay in rats after intragastrical administration. To be noted: Sprague-Dawley, rat, plasma, po, 30 mg/kg, intragastric, male rats. The format is in vivo, SD rats. The method, then:
Male SD rats were used as test animals. The drug concentration in plasma at different time points was determined by LC/MS/MS method after intragastrical administration of the compounds of Examples 2, 17, 34, 37, 38, 39 and 43 to rats. The pharmacokinetic behavior of the compounds of the present invention was studied and evaluated in rats.
Twenty-one healthy adult male Sprague-Dawley (SD) rats were purchased from Shanghai Jiesijie Laboratory Animal Co., LTD, with Certificate No.: SCXK (Shanghai) 2013-0006, and equally divided into 7 groups (3 rats per group).
A certain amount of the test compound was weighed, and added with 2.5% by volume of DMSO and 97.5% by volume of 10% solutol HS-15 to formulate a […] colorless, clear and transparent solution.
After an overnight fast, SD rats were administered intragastrically the test compounds at an administration dosage of 30.0 mg/kg and an administration volume of 10.0 mL/kg.
The rats were intragastrically administered the compounds of Examples 2, 17, 34, 37, 38, 39 and 43. 0.2 mL of blood was taken from the orbital sinus before administration and at 0.5, 1.0, 2.0, 4.0, 6.0, 8.0, 11.0 and 24.0 hours after administration. The samples were stored in heparinized tubes, and centrifuged for 10 minutes at 4° C. at 3500 rpm to separate the plasma. The plasma samples were stored at −20° C. The rats were fed 2 hours after administration.
The content of the test compounds in the plasma of rats after intragastrical administration of the test compounds at different concentrations was determined: 50 μL of rat plasma at each time after administration was taken, added with 50 μL of the internal standard solution of camptothecin (100 ng/mL) and 150 μL of acetonitrile, vortex-mixed for 5 minutes, and centrifuged for 10 minutes (4000 rpm). 3 μL of the supernatant was taken from the plasma samples for LC/MS/MS analysis.

A further data set concerns the target human OTR (Homo sapiens, UniProt P30559). The data set is described as follows: Inhibition activity on human OTR (Fluo-4 calcium assay, HEK293/human OTR stably transfected cells). The format is cell-based. The settings on record: oxytocin 3 nM. A digest of the protocol: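 HEK293 cells stably expressing human OTR, loaded with Fluo-4 for 30 min at 37 °C, were preincubated 10 min at room temperature with compound (stocks 10^1–10^6 nM). Oxytocin (3 nM as added) then triggered calcium signal, read immediately at 494/516; IC50 fitted from fluorescence versus concentration.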

A further data set addresses human V1aR (Homo sapiens (Human), UniProt P37288). The data set is described as follows: Inhibition activity on human V1aR (Fluo-4 calcium assay, HEK293/human V1aR stably transfected cells). The format is cell-based. To be noted: vasopressin 3 nM. The method in brief:
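Stable HEK293/human V1aR cells, 25,000 cells/well, loaded with Fluo-4 for 30 minutes at 37° C. then 10 minutes room temperature; compounds (formulated at 10^1–10^6 nM) added 10 minutes before 3 nM vasopressin. Calcium fluorescence read immediately at 494/516; IC50 from concentration–signal curves.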

In another data set the target is human V1bR (Homo sapiens, UniProt P47901). The data set is described as follows: Inhibition activity on human V1bR (Fluo-4 calcium assay, HEK293/human V1bR pool cells). The format is cell-based. The settings on record: vasopressin 3 nM. The method, then:
The inhibition effect of the compounds of the present invention on the activity of human V1bR protein expressed in HEK293/human V1bR cells was determined by the following experimental method:
The pcDNA3.1-V1bR plasmid was transferred into HEK293 cells with the Lipofectamine® 3000 transfection reagent; G418 was added on the next day, and the HEK293/human V1bR pool cell lines were obtained.
HEK293/human V1bR pool cells were inoculated in a 96-well plate with an inoculation density of 25,000 cells/well one day in advance. On the next day, a loading buffer containing Fluo-4 dye was formulated using the reagents in the Fluo-4 NW calcium assay kit, and the culture medium was then removed; 100 μl of the loading buffer containing Fluo-4 dye were added to each well, and the plate was incubated at 37° C. for 30 minutes. After that, the plate was moved to room temperature and equilibrated for 10 minutes. The compounds were formulated into 10^6, 10^5, 10^4, 10^3, 10^2 and 10^1 nM. 1 μl of the compounds in each concentration was added to each well, and the plate was incubated at room temperature for 10 minutes. 50 μl of vasopressin polypeptide (3 nM) were automatically added by the machine, and the values were immediately detected at 494/516 nM by the flexstation 3 microplate reader. IC50 values of the compounds were calculated by Graphpad prism software using fluorescence signals corresponding to different concentrations.
The inhibition activity of the compounds of the present invention on human V1bR was determined by the above test, and the obtained IC50 values are shown in Table 3.

A further data set has as its target human V2R (Homo sapiens (Human), UniProt P30518). The data set can be described thus: Inhibition activity on human V2R (cAMP HTRF assay, HEK293/human V2R pool cells). The format is cell-based. To be noted: vasopressin. How it is done:
The inhibition effect of the compounds of the present invention on the activity of human V2R protein expressed in HEK293/human V2R cells was determined by the following experimental method:
The pcDNA3.1-V2R plasmid was transferred into HEK293 cells with the Lipofectamine® 3000 transfection reagent; G418 was added on the next day, and the HEK293/human V2R pool cell lines were obtained.
HEK293/human V2R pool cells were dissociated with the cell dissociation solution (enzyme-free), thereby dissociating the cells from the cell culture dish into individual cells. Then the cell solution was blown well, and centrifuged to remove the supernatant. The cells were resuspended in the test buffer 1 (1×HBSS+20 mM HEPES+0.1% BSA) and counted. The cell density was adjusted to 1250 cells/5 μl, i.e., 2.5*10^5/ml.
The compounds were formulated into a series of concentrations of 20 mM, 6.67 mM, 2.22 mM, 0.74 mM, 0.25 mM, 0.08 mM, 27.4 μM, 9.14 μM, 3.05 μM, 1.02 μM, 0.34 μM and 0 μM (DMSO) with pure DMSO. The compounds were then diluted into a 4-fold working concentration solution with the test buffer 2 (test buffer 1+1 mM IBMX).
Agonist: 460 μM vasopressin was used as the mother liquor, which was formulated at 2 μM with DMSO, and then diluted to 0.5 nM with the test buffer 2.
Standards: The first point was 20 μl of a stock solution (2848 nM), which was diluted successively to a total of eleven concentrations in a 4-fold concentration gradient with the test buffer 1 from the second point.
1. The well-mixed cells were added to a 384-well plate (5 μl/well) without changing the tip.
2. The test compounds and positive compound formulated were added (2.5 μl/well), and the tips were changed.
3. The plate was centrifuged at 1000 rpm for 1 min, shaken for 30 sec to mix well, and incubated at room temperature for 30 min.
4. The standard curve wells were added with the test buffer 2 (5 μl/well).
5. The formulated agonist was added (2.5 μl/well), and the tips were changed; the plate was centrifuged at 1000 rpm for 1 min, shaken for 30 sec to mix well, and incubated at room temperature for 30 min.
6. cAMP-d2 (a component in the cAMP dynamic 2 kit) and Anti-cAMP-Eu-Cryptate (a component in the cAMP dynamic 2 kit) were formulated in the dark, which were then mixed well with cAMP lysate (a component in the cAMP dynamic 2 kit) in a ratio of 1:4. Each well was added with the formulated cAMP-d2 solution (5 μl/well), followed by addition of Anti-cAMP-Eu-Cryptate (5 μl/well). The plate was shaken for 30 sec to mix well, and incubated in the dark at room temperature for 1 h.
The HTRF Signals were Read by the PheraStar Multi-Function Microplate Reader.
The data in this test was processed using the data processing software Graphpad Prism.
The inhibition activity of the compounds of the present invention on human V2R was determined by the above test, and the IC50 values obtained are shown in Table 4.

Chain of human V2R (P30518 whole entry): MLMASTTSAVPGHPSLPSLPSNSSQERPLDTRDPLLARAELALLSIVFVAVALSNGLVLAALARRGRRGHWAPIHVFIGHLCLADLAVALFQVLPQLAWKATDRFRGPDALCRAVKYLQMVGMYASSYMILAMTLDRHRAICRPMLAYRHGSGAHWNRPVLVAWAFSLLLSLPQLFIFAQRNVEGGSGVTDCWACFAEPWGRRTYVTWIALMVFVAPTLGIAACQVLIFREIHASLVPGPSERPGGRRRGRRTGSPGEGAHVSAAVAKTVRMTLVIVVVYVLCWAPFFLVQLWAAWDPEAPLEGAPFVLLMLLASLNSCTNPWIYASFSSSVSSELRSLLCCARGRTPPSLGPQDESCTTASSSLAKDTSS
Chain of human V1aR (P37288 whole entry): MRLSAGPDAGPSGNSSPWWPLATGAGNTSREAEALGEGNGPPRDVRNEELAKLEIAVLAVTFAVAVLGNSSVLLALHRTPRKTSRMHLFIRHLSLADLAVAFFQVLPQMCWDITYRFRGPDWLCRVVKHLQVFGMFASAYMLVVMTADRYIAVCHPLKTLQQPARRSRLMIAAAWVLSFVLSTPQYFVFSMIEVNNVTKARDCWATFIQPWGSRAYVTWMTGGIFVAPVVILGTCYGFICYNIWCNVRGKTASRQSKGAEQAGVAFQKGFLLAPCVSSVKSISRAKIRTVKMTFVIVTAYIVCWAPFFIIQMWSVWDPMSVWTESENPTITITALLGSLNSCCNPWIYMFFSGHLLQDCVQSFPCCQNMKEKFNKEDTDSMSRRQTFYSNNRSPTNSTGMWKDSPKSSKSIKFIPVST

`COCc1nnc(N2CC(Oc3ccc(F)cc3Cl)C2)n1-c1ccc(OC)nc1` [5-(3-(3-(2-Chloro-4-fluorophenoxy)azetidin-1-yl)-5-(methoxymethyl)-4H-1,2,4-triazol-4-yl)-2-methoxypyridine, reference compound]: in data set [1], the Kp (in general, the ratio of the level in a tissue or fluid to that in plasma or blood) at 0.5 h was found to be 0.064.
Take `COc1ccc(-n2c(COC(F)F)nnc2N2CC(c3cccc4cc(F)ccc34)C2)cn1` [Example 38, 5-(3-((Difluoromethoxy)methyl)-5-(3-(6-fluoronaphthalen-1-yl)azetidin-1-yl)-4H-1,2,4-triazol-4-yl)-2-methoxypyridine]: the Kp at 0.5 h in data set [1] turned out to be 0.175. For the same compound, in data set [2] (read-out: Apparent distribution volume Vz/F), the Vd/F came out at 27.8 ± 22.8 L/kg. Also, the AUC (usually the area under the concentration-time curve, a measure of exposure) in data set [2] (read-out: Area under curve AUC) was found to be 5630 ± 3010 ng·h/mL. Also, the CL/F in data set [2] (read-out: Clearance CLz/F) is 104 ± 44 mL/min/kg. In data set [2] (read-out: Half-life T1/2 (converted)), the half-life is 2.83 ± 1.9 h. Moreover, in data set [2] (read-out: Plasma concentration Cmax), the Cmax was 1060 ± 270 ng/mL. In addition, the MRT (as a rule, the average time that molecules of a dose stay in the body) in data set [2] (read-out: Residence time MRT) stood at 4.19 ± 1.25 h. The IC50 (usually the concentration that gives 50% inhibition) on human OTR is 0.002 µM.
Turning to `COCc1nnc(N2CC(n3cc(Cl)c4cc(F)ccc43)C2)n1-c1ccc(OC)nc1` [Example 10, 3-Chloro-5-fluoro-1-(1-(5-(methoxymethyl)-4-(6-methoxypyridin-3-yl)-4H-1,2,4-triazol-3-yl)azetidin-3-yl)-1H-indole], the IC50 amounted to 5.7 µM at human V1aR, 12.4 µM on human V1bR, 20.7 µM against human V2R and 0.091 µM on human OTR.
As to `CCOCc1nnc(N2CC(N3CCOc4cc(F)ccc43)C2)n1-c1ccc(OC)nc1` [Example 31, 4-(1-(5-(Ethoxymethyl)-4-(6-methoxypyridin-3-yl)-4H-1,2,4-triazol-3-yl)azetidin-3-yl)-7-fluoro-3,4-dihydro-2H-benzo[b][1,4]oxazine], the IC50 was determined as 3.5 µM on human V1aR, 54.5 µM on human V1bR, 5.8 µM on human V2R and 0.079 µM on human OTR.
As for `COCc1nnc(N2CC(C3CCOc4cc(F)ccc43)C2)n1-c1ccc(OC)nc1` (stereo not drawn) [Example 21, 5-(3-(3-(7-Fluorobenzodihydropyran-4-yl)azetidin-1-yl)-5-(methoxymethyl)-4H-1,2,4-triazol-4-yl)-2-methoxypyridine], the IC50 came out at 2.7 µM on human V1aR, 38.8 µM on human V1bR, 17.3 µM at human V2R and 0.025 µM on human OTR.
